# Experimental data taken from patent publication US12226424B2, “Target protein degradation compounds, their anti-tumor use, their intermediates and use of intermediates” (ShanghaiTech University, priority 2018, dated 2025).
# What was measured:
# [1] = tested on: K562 cells (BCR-ABL positive); test: Half inhibitory concentration (IC50) on tumor cells, CCK-8, K562; conditions: Homo sapiens, K562, 48 h, read-out: IC50 (nM)/K562 cell line
# Procedure: Determination of Half Inhibitory Concentration (IC50) of PROTAD Compounds on Tumor Cells
# K562 cells were seeded in 100 μL of RPMI1640 complete medium at a density of 20,000 cells/well. 100 μL of the inoculated cells were treated with 100 μL diluted PROTAD compound of the present disclosure to be tested at 9 successively decreasing concentrations (starting at the highest concentration of 10 μM; 3-fold serial dilutions). After the cells were treated with the tested drugs for 48 hours, the cell viability determination was performed in accordance with CCK-8 reagent operating instructions. The negative control was DMSO, and positive control was a commercial inhibitor. After CCK-8 treatment for 2 h, the value of O.D.450 was measured using a microplate reader.
# [2] = biological target: BCR-ABL (Homo sapiens, UniProt P00519); test: Western-blot half-degradation concentration (DC50) / degradation of BCR-ABL in K562 cells; conditions: read-out: DC50 (nM)/K562 cell line, BCR-ABL protein degradation, 24 hours, Western-blot
# Chain of BCR-ABL (P00519 with tags, fused parts or gaps): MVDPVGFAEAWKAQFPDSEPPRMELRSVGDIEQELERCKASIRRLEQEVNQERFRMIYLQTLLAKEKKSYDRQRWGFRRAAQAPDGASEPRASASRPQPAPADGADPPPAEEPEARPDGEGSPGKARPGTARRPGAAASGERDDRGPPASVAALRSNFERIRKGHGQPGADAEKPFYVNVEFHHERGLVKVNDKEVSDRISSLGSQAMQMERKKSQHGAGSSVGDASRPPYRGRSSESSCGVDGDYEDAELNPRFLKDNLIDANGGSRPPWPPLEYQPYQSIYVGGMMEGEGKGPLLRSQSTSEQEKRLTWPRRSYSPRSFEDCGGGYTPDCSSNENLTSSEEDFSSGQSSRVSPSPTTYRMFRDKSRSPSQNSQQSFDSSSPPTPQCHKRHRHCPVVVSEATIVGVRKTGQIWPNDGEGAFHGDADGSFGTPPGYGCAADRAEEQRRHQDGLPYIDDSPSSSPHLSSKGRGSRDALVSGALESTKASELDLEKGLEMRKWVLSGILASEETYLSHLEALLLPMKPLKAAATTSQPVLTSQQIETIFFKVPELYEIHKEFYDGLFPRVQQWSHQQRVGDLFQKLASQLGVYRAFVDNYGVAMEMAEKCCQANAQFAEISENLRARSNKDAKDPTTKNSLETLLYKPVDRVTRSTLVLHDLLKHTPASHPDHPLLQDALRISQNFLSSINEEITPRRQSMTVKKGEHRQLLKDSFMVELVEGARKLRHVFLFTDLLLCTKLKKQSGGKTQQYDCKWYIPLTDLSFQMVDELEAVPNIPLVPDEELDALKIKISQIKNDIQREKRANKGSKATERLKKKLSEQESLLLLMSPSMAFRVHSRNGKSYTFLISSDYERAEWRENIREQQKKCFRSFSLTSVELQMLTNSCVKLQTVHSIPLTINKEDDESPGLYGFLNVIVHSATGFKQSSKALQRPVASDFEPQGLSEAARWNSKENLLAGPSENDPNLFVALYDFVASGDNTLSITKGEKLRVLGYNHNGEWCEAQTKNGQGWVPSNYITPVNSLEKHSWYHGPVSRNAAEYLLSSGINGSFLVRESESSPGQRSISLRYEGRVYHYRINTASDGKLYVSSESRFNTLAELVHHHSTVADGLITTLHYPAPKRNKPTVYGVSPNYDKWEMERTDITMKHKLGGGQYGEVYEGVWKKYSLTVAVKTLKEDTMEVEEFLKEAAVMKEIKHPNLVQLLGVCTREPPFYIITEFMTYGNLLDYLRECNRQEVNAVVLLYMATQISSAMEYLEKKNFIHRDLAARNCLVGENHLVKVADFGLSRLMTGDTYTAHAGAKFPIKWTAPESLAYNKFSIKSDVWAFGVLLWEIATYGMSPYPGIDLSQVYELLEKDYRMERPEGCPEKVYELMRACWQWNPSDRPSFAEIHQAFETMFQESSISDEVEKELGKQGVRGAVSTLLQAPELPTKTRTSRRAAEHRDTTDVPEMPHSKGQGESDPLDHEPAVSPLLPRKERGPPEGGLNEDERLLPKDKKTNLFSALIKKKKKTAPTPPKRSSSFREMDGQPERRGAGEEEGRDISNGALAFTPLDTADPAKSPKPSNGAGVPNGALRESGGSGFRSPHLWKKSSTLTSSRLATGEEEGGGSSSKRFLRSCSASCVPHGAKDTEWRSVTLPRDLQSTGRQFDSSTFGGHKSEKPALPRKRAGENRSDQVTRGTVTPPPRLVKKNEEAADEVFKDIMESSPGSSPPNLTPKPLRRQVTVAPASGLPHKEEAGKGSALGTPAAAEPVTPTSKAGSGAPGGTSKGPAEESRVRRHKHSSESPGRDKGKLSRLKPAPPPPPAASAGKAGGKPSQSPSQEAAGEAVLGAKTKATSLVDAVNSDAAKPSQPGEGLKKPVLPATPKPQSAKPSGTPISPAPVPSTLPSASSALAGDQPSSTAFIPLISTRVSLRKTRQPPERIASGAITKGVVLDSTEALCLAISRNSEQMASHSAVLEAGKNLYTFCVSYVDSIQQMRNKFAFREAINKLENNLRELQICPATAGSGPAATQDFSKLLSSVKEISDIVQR
# [3] = tested on: MM1S cells; test: Half inhibitory concentration (IC50) on BET-expressing tumor cells, CCK-8, MM1S; format: cell-based; conditions: Homo sapiens, MM1.S, 48/72 h, read-out: IC50 (nM)/MM1S cell line
# Procedure: BET-expressing cells MV-4-11 cells (human B granulocytic leukemia cells), MDA-MB-231 cells (human breast cancer cells), MDA-MB-468 cells (human breast cancer cells), MDA-MB-453 Cells (human breast cancer cells), MM1S cells (myeloma (immunoglobulin A lambda), B lymphoblasts) and SR cells (human large cell immunoblast lymphoma) were purchased from the American Type Culture Collection (ATCC).
# The cells used in this present disclosure were cultured in a 37° C. incubator containing 5% CO2. The complete cell culture medium was RPMI 1640/IMDM/DMEM medium with 10% fetal bovine serum, and the final concentrations of penicillin and streptomycin were 100 U/mL, respectively. All cells were tested negative for mycoplasma with mycoplasma detection kit before the experiment.
# Determination of the Half Inhibitory Concentration (IC50) of PROTAD Compounds on Tumor Cells
# MV-411 cells, MM1S cells and SR cells were seeded in 100 μL IMDM/RPMI1640/DMEM complete medium at a density of 15000/10000 cells/well; MDA-MB-231 cells, MDA-MB-468 cells, and MDA-MB453 cells were seeded in 100 μL IMDM/RPMI1640/DMEM complete medium at a density of 3000/5000 cells/well, respectively. 100 μL of the inoculated cells were treated with 0.5 μL diluted PROTAD compounds of the present disclosure to be tested at 10 successively decreasing concentrations (starting at the highest concentration of 10 μM; 5-fold serial dilutions). After the cells were treated with the tested drugs 48/72 h, the cell viability was determined according to the CCK-8 reagent manual. The negative control was DMSO, and the positive control was a commercial inhibitor. After CCK-8 treatment for 2 h, the value of O.D.450 was measured using a microplate reader.
# [4] = tested on: MV-4-11 cells; test: Half inhibitory concentration (IC50) on BET-expressing tumor cells, CCK-8, MV-4-11; conditions: Homo sapiens, MV4-11, read-out: IC50 (nM)/MV-4-11 cell line, MV-4-11 cells, 48/72 h, CCK-8
# [5] = tested on: SR cells; test: Half inhibitory concentration (IC50) on ALK-positive SR cell proliferation (CCK-8); format: cell-based; conditions: Homo sapiens; SR cells, 72 h drug treatment, CCK-8; read-out: IC50 (nM)/ SR cell line
# In short: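 SR cells seeded at 10,000 cells/well in RPMI1640 and treated with PROTAD compounds at 10 concentrations (top 10 μM, 5-fold dilutions) for 72 h at 37° C, 5% CO2. Viability read by CCK-8 (2 h) at OD450; DMSO as negative control.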
# [6] = biological target: T1, ALK protein (Homo sapiens, UniProt Q9UM73); test: Western-blot half degradation concentration (DC50) of ALK protein in SR cells; format: cell-based; conditions: 24 h drug treatment, read-out: DC50 (nM)/ SR cell line
# Procedure: (§1) ALK-positive SR cells (human large cell immunoblastic lymphoma) were purchased from the American Type Culture Collection (ATCC); H3122 cells (human non-small cell lung cancer) were from the Shanghai University of Science and Technology Lin Haifan's research group.
# (§2) The cells used in this present disclosure were cultured in a 37° C. incubator containing 5% CO2.
# (§3) DC50 (drug concentration corresponding to protein degradation to 50%) calculation: according to the gray value of the corresponding Western blotting band after drug treatment, fitting the relationship curve between drug concentration and gray value to calculate the drug concentration range corresponding to half of the gray value.
# Target sequence in this assay (Q9UM73 with tags, fused parts or gaps): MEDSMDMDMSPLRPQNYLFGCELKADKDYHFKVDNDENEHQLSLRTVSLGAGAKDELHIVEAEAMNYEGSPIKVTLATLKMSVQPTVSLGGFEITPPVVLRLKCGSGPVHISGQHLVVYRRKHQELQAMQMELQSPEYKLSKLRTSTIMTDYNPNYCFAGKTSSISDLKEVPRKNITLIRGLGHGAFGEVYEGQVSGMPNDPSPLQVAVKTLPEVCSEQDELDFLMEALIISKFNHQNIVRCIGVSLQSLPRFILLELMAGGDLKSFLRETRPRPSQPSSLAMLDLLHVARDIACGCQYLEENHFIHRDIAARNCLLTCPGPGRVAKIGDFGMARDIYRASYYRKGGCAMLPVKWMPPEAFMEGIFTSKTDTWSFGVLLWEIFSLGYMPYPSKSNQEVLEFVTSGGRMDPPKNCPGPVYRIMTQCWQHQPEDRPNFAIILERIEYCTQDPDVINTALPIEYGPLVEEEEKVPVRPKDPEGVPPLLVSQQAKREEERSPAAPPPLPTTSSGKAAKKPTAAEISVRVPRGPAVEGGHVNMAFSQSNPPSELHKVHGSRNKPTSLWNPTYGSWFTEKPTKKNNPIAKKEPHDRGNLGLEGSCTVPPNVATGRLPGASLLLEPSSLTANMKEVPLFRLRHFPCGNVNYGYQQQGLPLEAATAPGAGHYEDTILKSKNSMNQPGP
# [7] = biological target: T1, ALK protein; test: Western-blot half degradation concentration (DC50) of ALK protein in H3122 cells; format: cell-based; conditions: 24 h drug treatment, read-out: DC50 (nM)/ H3122 cell line
# Procedure: as §1, §2, §3
# Target sequence in this assay (Q9UM73 with tags, fused parts or gaps): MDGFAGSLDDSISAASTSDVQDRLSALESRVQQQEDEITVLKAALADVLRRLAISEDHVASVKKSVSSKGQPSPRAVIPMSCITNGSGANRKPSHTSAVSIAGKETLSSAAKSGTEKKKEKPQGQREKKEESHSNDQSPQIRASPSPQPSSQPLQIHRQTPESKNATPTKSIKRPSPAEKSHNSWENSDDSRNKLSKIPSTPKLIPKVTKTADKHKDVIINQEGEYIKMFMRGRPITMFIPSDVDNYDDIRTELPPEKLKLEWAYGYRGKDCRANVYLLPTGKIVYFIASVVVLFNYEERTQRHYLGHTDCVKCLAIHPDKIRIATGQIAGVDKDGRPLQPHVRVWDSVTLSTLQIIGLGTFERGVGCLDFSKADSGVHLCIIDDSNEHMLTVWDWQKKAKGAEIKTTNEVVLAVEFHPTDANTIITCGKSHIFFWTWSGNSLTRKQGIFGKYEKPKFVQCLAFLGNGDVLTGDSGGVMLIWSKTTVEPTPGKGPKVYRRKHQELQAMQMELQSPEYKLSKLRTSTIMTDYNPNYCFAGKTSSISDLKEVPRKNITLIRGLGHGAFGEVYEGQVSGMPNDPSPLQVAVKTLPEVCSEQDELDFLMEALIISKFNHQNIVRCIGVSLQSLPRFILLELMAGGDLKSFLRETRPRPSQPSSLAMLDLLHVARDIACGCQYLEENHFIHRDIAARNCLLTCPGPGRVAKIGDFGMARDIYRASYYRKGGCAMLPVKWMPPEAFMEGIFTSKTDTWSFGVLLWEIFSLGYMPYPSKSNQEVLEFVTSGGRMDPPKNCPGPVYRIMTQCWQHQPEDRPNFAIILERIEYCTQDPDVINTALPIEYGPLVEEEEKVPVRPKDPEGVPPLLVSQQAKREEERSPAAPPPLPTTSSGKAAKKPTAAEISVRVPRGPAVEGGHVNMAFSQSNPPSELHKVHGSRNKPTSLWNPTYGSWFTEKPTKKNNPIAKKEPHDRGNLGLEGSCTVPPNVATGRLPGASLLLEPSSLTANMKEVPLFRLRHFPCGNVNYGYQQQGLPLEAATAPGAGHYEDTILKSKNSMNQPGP
smiles,measurement,setting,value
"Cc1nc(Nc2ncc(C(=O)Nc3c(C)cccc3Cl)s2)cc(N2CCN(C(=O)CCSc3cccc4c3C(=O)N(C3CCC(=O)NC3=O)C4=O)CC2)n1 (stereo not drawn) [SIAIS151152, N-(2-chloro-6-methylphenyl)-2-((6-(4-(3-((2-(2,6-dioxopiperidin-3-yl)-1,3-dioxoisoindolin-4-yl)thio)propanoyl)piperazin-1-yl)-2-methylpyrimidin-4-yl)amino)thiazole-5-carboxamide]",IC50,[1],11.1 nM
same,DC50,[2],< 1 nM
"Cc1nc(Nc2ncc(C(=O)Nc3c(C)cccc3Cl)s2)cc(N2CCN(C(=O)CCCSc3cccc4c3C(=O)N(C3CCC(=O)NC3=O)C4=O)CC2)n1 (stereo not drawn) [SIAIS151153, N-(2-chloro-6-methylphenyl)-2-((6-(4-(4-((2-(2,6-dioxopiperidin-3-yl)-1,3-dioxoisoindolin-4-yl)thio)butanoyl)piperazin-1-yl)-2-methylpyrimidin-4-yl)amino)thiazole-5-carboxamide]",IC50,[1],15 nM
same,DC50,[2],20.7 nM
"Cc1nc(Nc2ncc(C(=O)Nc3c(C)cccc3Cl)s2)cc(N2CCN(C(=O)CCCCSc3cccc4c3C(=O)N(C3CCC(=O)NC3=O)C4=O)CC2)n1 (stereo not drawn) [SIAIS151154, N-(2-chloro-6-methylphenyl)-2-((6-(4-(5-((2-(2,6-dioxopiperidin-3-yl)-1,3-dioxoisoindolin-4-yl)thio)pentanoyl)piperazin-1-yl)-2-methylpyrimidin-4-yl)amino)thiazole-5-carboxamide]",IC50,[1],5.74 nM
same,DC50,[2],2 nM
"Cc1nc(Nc2ncc(C(=O)Nc3c(C)cccc3Cl)s2)cc(N2CCN(C(=O)CCCCCSc3cccc4c3C(=O)N(C3CCC(=O)NC3=O)C4=O)CC2)n1 (stereo not drawn) [SIAIS151155, N-(2-chloro-6-methylphenyl)-2-((6-(4-(6-((2-(2,6-dioxopiperidin-3-yl)-1,3-dioxoisoindolin-4-yl)thio)hexanoyl)piperazin-1-yl)-2-methylpyrimidin-4-yl)amino)thiazole-5-carboxamide]",IC50,[1],8.66 nM
same,DC50,[2],0.8 nM
"Cc1nc(Nc2ncc(C(=O)Nc3c(C)cccc3Cl)s2)cc(N2CCN(C(=O)CCCCCCSc3cccc4c3C(=O)N(C3CCC(=O)NC3=O)C4=O)CC2)n1 (stereo not drawn) [SIAIS151156, N-(2-chloro-6-methylphenyl)-2-((6-(4-(7-((2-(2,6-dioxopiperidin-3-yl)-1,3-dioxoisoindolin-4-yl)thio)heptanoyl)piperazin-1-yl)-2-methylpyrimidin-4-yl)amino)thiazole-5-carboxamide]",IC50,[1],6.63 nM
same,DC50,[2],2.9 nM
"Cc1nc(Nc2ncc(C(=O)Nc3c(C)cccc3Cl)s2)cc(N2CCN(CCSc3cccc4c3CN(C3CCC(=O)NC3=O)C4=O)CC2)n1 (stereo not drawn) [SIAIS171166, N-(2-chloro-6-methylphenyl)-2-((6-(4-(2-((2-(2,6-dioxopiperidin-3-yl)-1-oxoisoindolin-4-yl)thio)ethyl)piperazin-1-yl)-2-methylpyrimidin-4-yl)amino)thiazole-5-carboxamide]",IC50,[1],0.51 nM
same,DC50,[2],< 1 nM
"Cc1nc(Nc2ncc(C(=O)Nc3c(C)cccc3Cl)s2)cc(N2CCN(CCCSc3cccc4c3C(=O)N(C3CCC(=O)NC3=O)C4=O)CC2)n1 (stereo not drawn) [SIAIS172106, N-(2-chloro-6-methylphenyl)-2-((6-(4-(3-((2-(2,6-dioxopiperidin-3-yl)-1,3-dioxoisoindolin-4-yl)thio)propyl)piperazin-1-yl)-2-methylpyrimidin-4-yl)amino)thiazole-5-carboxamide]",IC50,[1],0.83 nM
same,DC50,[2],< 3 nM
"Cc1sc2c(c1C)C(c1ccc(Cl)cc1)=N[C@@H](CC(=O)NCCOCCOCCSc1cccc3c1C(=O)N(C1CCC(=O)NC1=O)C3=O)c1nnc(C)n1-2 (stereo partly drawn) [SIAIS213070, 2-((S)-4-(4-chlorophenyl)-2,3,9-trimethyl-6H-thieno[3,2-f][1,2,4]triazolo[4,3-a][1,4]diazepin-6-yl)-N-(2-(2-(2-((2-(2,6-dioxopiperidin-3-yl)-1,3-dioxoisoindolin-4-yl)thio)ethoxy)ethoxy)ethyl)acetamide]",IC50,[3],12.8 nM
same,IC50,[4],2 ± 0.4 nM
"Cc1sc2c(c1C)C(c1ccc(Cl)cc1)=N[C@@H](CC(=O)NCCOCCOCCSc1cccc3c1CN(C1CCC(=O)NC1=O)C3=O)c1nnc(C)n1-2 (stereo partly drawn) [SIAIS213072, 2-((S)-4-(4-chlorophenyl)-2,3,9-trimethyl-6H-thieno[3,2-f][1,2,4]triazolo[4,3-a][1,4]diazepin-6-yl)-N-(2-(2-(2-((2-(2,6-dioxopiperidin-3-yl)-1-oxoisoindolin-4-yl)thio)ethoxy)ethoxy)ethyl)acetamide]",IC50,[3],3.03 nM
same,IC50,[4],0.5 ± 0.1 nM
"Cc1sc2c(c1C)C(c1ccc(Cl)cc1)=N[C@@H](CC(=O)NCCCCNC(=O)CSc1cccc3c1C(=O)N(C1CCC(=O)NC1=O)C3=O)c1nnc(C)n1-2 (stereo partly drawn) [SIAIS213075, 2-((S)-4-(4-chlorophenyl)-2,3,9-trimethyl-6H-thieno[3,2-f][1,2,4]triazolo[4,3-a][1,4]diazepin-6-yl)-N-(4-(2-((2-(2,6-dioxopiperidin-3-yl)-1,3-dioxoisoindolin-4-yl)thio)acetamido)butyl)acetamide]",IC50,[3],96.1 nM
same,IC50,[4],6.5 ± 2.5 nM
"Cc1sc2c(c1C)C(c1ccc(Cl)cc1)=N[C@@H](CC(=O)NCCCCNC(=O)CSc1cccc3c1CN(C1CCC(=O)NC1=O)C3=O)c1nnc(C)n1-2 (stereo partly drawn) [SIAIS213094, 2-((S)-4-(4-chlorophenyl)-2,3,9-trimethyl-6H-thieno[3,2-f][1,2,4]triazolo[4,3-a][1,4]diazepin-6-yl)-N-(4-(2-((2-(2,6-dioxopiperidin-3-yl)-1-oxoisoindolin-4-yl)thio)acetamido)butyl)acetamide]",IC50,[3],42.5 nM
same,IC50,[4],4.9 ± 0.8 nM
"COc1cc(N2CCC(N3CCN(C(=O)CSc4cccc5c4CN(C4CCC(=O)NC4=O)C5=O)CC3)CC2)ccc1Nc1ncc(Cl)c(Nc2ccccc2P(C)(C)=O)n1 (stereo not drawn) [SIAIS219067, 3-(4-((2-(4-(1-(4-((5-chloro-4-((2-(dimethylphosphoryl)phenyl)amino)pyrimidin-2-yl)amino)-3-methoxyphenyl)piperidin-4-yl)piperazin-1-yl)-2-oxoethyl)thio)-1-oxoisoindolin-2-yl)piperidine-2,6-dione]",IC50,[5],2.4 ± 1.4 nM
same,DC50,[6],0.1 to 10 nM
"COc1cc(N2CCC(N3CCN(C(=O)CCSc4cccc5c4CN(C4CCC(=O)NC4=O)C5=O)CC3)CC2)ccc1Nc1ncc(Cl)c(Nc2ccccc2P(C)(C)=O)n1 (stereo not drawn) [SIAIS219068, 3-(4-((3-(4-(1-(4-((5-chloro-4-((2-(dimethylphosphoryl)phenyl)amino)pyrimidin-2-yl)amino)-3-methoxyphenyl)piperidin-4-yl)piperazin-1-yl)-3-oxopropyl)thio)-1-oxoisoindolin-2-yl)piperidine-2,6-dione]",IC50,[5],1.7 ± 0.8 nM
same,DC50,[6],1 to 10 nM
"COc1cc(N2CCN(C(=O)CCCCSc3cccc4c3C(=O)N(C3CCC(=O)NC3=O)C4=O)CC2)ccc1Nc1ncc(Cl)c(Nc2ccccc2P(C)(C)=O)n1 (stereo not drawn) [SIAIS1197119, 4-((5-(4-(4-((5-chloro-4-((2-(dimethylphosphoryl)phenyl)amino)pyrimidin-2-yl)amino)-3-methoxyphenyl)piperazin-1-yl)-5-oxopentyl)thio)-2-(2,6-dioxopiperidin-3-yl)isoindoline-1,3-dione]",IC50,[5],13.2 ± 2.6 nM
same,DC50,[7],500 nM
"COc1cc(N2CCN(C(=O)CCCCCCSc3cccc4c3C(=O)N(C3CCC(=O)NC3=O)C4=O)CC2)ccc1Nc1ncc(Cl)c(Nc2ccccc2P(C)(C)=O)n1 (stereo not drawn) [SIAIS1197159, 4-((7-(4-(4-((5-chloro-4-((2-(dimethylphosphoryl)phenyl)amino)pyrimidin-2-yl)amino)-3-methoxyphenyl)piperazin-1-yl)-7-oxoheptyl)thio)-2-(2,6-dioxopiperidin-3-yl)isoindoline-1,3-dione]",IC50,[5],10 ± 5.7 nM
same,DC50,[7],500 nM
